# Laboratory results as given in BindingDB's records for doi:10.1111/j.1747-0285.2009.00833.x (Bayer Healthcare, 2009).
# Molecular target: Heat shock protein HSP 90-alpha (Homo sapiens, UniProt P07900)
# Test: Competition Assay
# Settings: pH 7.4
# Excerpt: To assess the affinity of compounds binding to Hsp90, we measured their ability to compete with the binding of a fluorescent analog of GA (GM-Bodipy) to Hsp90 using fluoresence polarization.
row,IC50,SMILES
1,0.5 nM,"Oc1ccc(-c2nnc(S)n2-c2ccccc2)c(O)c1 [Unsubstituted phenyl ring analog, 2]"
2,0.1 nM,"CC(C)c1cc(-c2n[nH]c(=S)n2-c2cccc3ccccc23)c(O)cc1O [lspropyl analog, 5]"
3,0.2 nM,"CCc1cc(-c2nnc(S)n2-c2cccc3ccccc23)c(O)cc1O [Ethyl analog, 4]"
4,0.3 nM,"Oc1ccc(-c2nnc(S)n2-c2cccc3ccccc23)c(O)c1 [Resorcinol analog, 1]"
5,0.04 nM,CCOC(=O)NCc1ccc(-n2c(-c3cc(C(C)C)c(O)cc3O)n[nH]c2=S)cc1 [BX-2819]
6,0.1 nM,"CCOC(=O)NCc1ccc(-n2c(-c3ccc(O)cc3O)n[nH]c2=S)cc1 [Ethyl carbamate analog, 3]"
